Patent US20260078120A1, “SUBSTITUTED PYRIDOPYRIMIDINONES” (MIRATI THERAPEUTICS, INC., priority 2022, published 2026)
Where two headings read alike, the source gives them in different places.

Columns and labels:
[1] = tested on: SKBR3 (PI3Kα wild type) cells; test: CellTiter-Glo 2.0 luminescent cell viability assay, 72 hours, SKBR3 cells; type: cell-based; conditions: Homo sapiens, SK-BR-3, 72 h
Procedure: (§1) The ability of a compound of Formula (I) to decrease the viability of cells was measured using CellTiter-Glo 2.0 (CTG) Luminescent Cell Viability Assay (#G9241) obtained from Promega (Madison, WI).
To prepare assay plates for viability assays, cells were trypsinized, resuspended in fresh media, and viable cells were counted utilizing trypan blue exclusion.
(§2) Assay day 1, cells were dosed using an Echo Liquid Handler (Beckman Coulter) with compounds at a 10 um starting concentration and serially diluted (1:4) for a total of 10 concentrations. Cells were incubated for approximately 72 hours with the compounds (solubilized in DMSO) at 37° C. After 72 hours of treatment, cell plates were equilibrated to room temperature before adding 15 μl of CTG to each well, plates were then covered in aluminum foil to protect from light, incubated at room temperature for 30 minutes on a microtiter plate shaker, and luminescence readings were collected using a CLARIOstar microplate reader (BMG Labtech, Germany). Percent of vehicle control values were plotted as log (inhibitor) vs. response-Variable slope (four parameters) for curve fitting and IC50 values were determined using XLfit.

[2] = tested on: T47D (PI3Kα H1047R mutant) cells; test: CellTiter-Glo 2.0 luminescent cell viability assay, 72 hours, T47D cells; type: cell-based
Procedure: This Example illustrates that exemplary compounds of the present invention decrease the viability of cells.
as §1
To prepare assay plates for viability assays, cells were trypsinized, resuspended in fresh media, and viable cells were counted utilizing trypan blue exclusion. T47D, SKBR3, or MKN1 cells were seeded at 1000 cells in 30 μl per well in a solid white flat bottom 384 cell culture plate (Perkin Elmer #6007680) and incubated at 37° C. overnight.
as §2

[3] = SKBR3 (PI3Kα wild type) cells, CellTiter-Glo, approximately 72 hours, read-out: SKBR3 (WT) Viability IC50
[4] = Homo sapiens, T47D, 72 h, T47D (PI3Kα H1047R mutant) cells, CellTiter-Glo, approximately 72 hours, read-out: T47D (H1047R mutant) Viability IC50
[5] = T47D (PI3Kα H1047R mutant) cells, CellTiter-Glo, approximately 72 hours, read-out: T47D (H1047R mutant) Viability IC50

| Compound | IC50 ([1]; read-out: SKBR3 (WT) Viability IC50 (nM)) | IC50 ([2]; Homo sapiens, T47D, 72 h, read-out: T47D (H1047R mutant) Viability IC50 (nM)) | IC50 [1, 3] | IC50 [2, 4] | IC50 [2, 5] |
| --- | --- | --- | --- | --- | --- |
| Cc1cc([C@@H](C)Nc2ccccc2C(=O)O)c2nc(N3C4CCC3CC(c3ccnn3C)C4)c(C)c(=O)n2c1 (stereo partly drawn) [Example 10-2, 2-(((1R)-1-(3,7-dimethyl-2-(3-(1-methyl-1H-pyrazol-5-yl)-8-azabicyclo[3.2.1]octan-8-yl)-4-oxo-4H-pyrido[1,2-a]pyrimidin-9-yl)ethyl)amino)benzoic acid] | > 10000 nM | 4.72 nM |  |  |  |
| Cc1cc([C@@H](C)Nc2ccccc2C(=O)O)c2nc(N3CCC(N4CCCCC4=O)CC3)c(C)c(=O)n2c1 [Example 10-3, (R)-2-((1-(3,7-dimethyl-4-oxo-2-(2-oxo-[1,4′-bipiperidin]-1′-yl)-4H-pyrido[1,2-a]pyrimidin-9-yl)ethyl)amino)benzoic acid] |  |  | > 10000 nM | 8.12 nM |  |
| CCOCC1CCN(c2nc3c([C@@H](C)Nc4ccccc4C(=O)O)cc(C)cn3c(=O)c2C)CC1 [Example 10-4, (R)-2-((1-(2-(4-(ethoxymethyl)piperidin-1-yl)-3,7-dimethyl-4-oxo-4H-pyrido[1,2-a]pyrimidin-9-yl)ethyl)amino)benzoic acid] |  |  | > 10000 nM | 12.3 nM |  |
| Cc1cc([C@@H](C)Nc2ccccc2C(=O)O)c2nc(N3CCN(C(=O)CC4CC4)CC3)c(C)c(=O)n2c1 [Example 10-6, (R)-2-((1-(2-(4-(2-cyclopropylacetyl)piperazin-1-yl)-3,7-dimethyl-4-oxo-4H-pyrido[1,2-a]pyrimidin-9-yl)ethyl)amino)benzoic acid] |  |  | > 10000 nM | 15 nM |  |
| Cc1cc([C@@H](C)Nc2ccccc2C(=O)O)c2nc(N3CCc4ccccc4C3)c(C)c(=O)n2c1 [Example 10-7, (R)-2-((1-(2-(3,4-dihydroisoquinolin-2(1H)-yl)-3,7-dimethyl-4-oxo-4H-pyrido[1,2-a]pyrimidin-9-yl)ethyl)amino)benzoic acid] |  |  | > 10000 nM | 16.9 nM |  |
| Cc1cc([C@@H](C)Nc2ccccc2C(=O)O)c2nc(N3CCCC4(CCC4O)C3)c(C)c(=O)n2c1 (stereo partly drawn) [Example 10-8, 2-(((1R)-1-(2-(1-hydroxy-6-azaspiro[3.5]nonan-6-yl)-3,7-dimethyl-4-oxo-4H-pyrido[1,2-a]pyrimidin-9-yl)ethyl)amino)benzoic acid] |  |  | > 10000 nM | 24.2 nM |  |
| Cc1cc([C@@H](C)Nc2ccccc2C(=O)O)c2nc(N3CCC(c4ccncc4)C3)c(C)c(=O)n2c1 (stereo partly drawn) [Example 10-9, 2-(((1R)-1-(3,7-dimethyl-4-oxo-2-(3-(pyridin-4-yl)pyrrolidin-1-yl)-4H-pyrido[1,2-a]pyrimidin-9-yl)ethyl)amino)benzoic acid] |  |  | > 10000 nM | 24.8 nM |  |
| Cc1cnn(C2CCN(c3nc4c([C@@H](C)Nc5ccccc5C(=O)O)cc(C)cn4c(=O)c3C)CC2)c1 [Example 10-16, (R)-2-((1-(3,7-dimethyl-2-(4-(4-methyl-1H-pyrazol-1-yl)piperidin-1-yl)-4-oxo-4H-pyrido[1,2-a]pyrimidin-9-yl)ethyl)amino)benzoic acid] |  |  | > 10000 nM | 37.3 nM |  |
| Cc1cc([C@@H](C)Nc2ccc(C)nc2C(=O)O)c2nc(N3CCC(F)(F)CC3)c(C#N)c(=O)n2c1 [Example 10-17, (R)-3-((1-(3-cyano-2-(4,4-difluoropiperidin-1-yl)-7-methyl-4-oxo-4H-pyrido[1,2-a]pyrimidin-9-yl)ethyl)amino)-6-methylpicolinic acid] |  |  | > 10000 nM | 38.4 nM |  |
| C[C@@H](Nc1ccccc1C(=O)O)c1cc(Cl)cn2c(=O)c(C#N)c(N3CCC(F)(F)CC3)nc12 [Example 10-26, (R)-2-((1-(7-chloro-3-cyano-2-(4,4-difluoropiperidin-1-yl)-4-oxo-4H-pyrido[1,2-a]pyrimidin-9-yl)ethyl)amino)benzoic acid] |  |  | > 10000 nM | 50.5 nM |  |
| CO[C@@H]1CCN(c2nc3c([C@@H](C)Nc4ccccc4C(=O)O)cc(C)cn3c(=O)c2C)CC1(F)F [Example 10-28, 2-(((R)-1-(2-((R)-3,3-difluoro-4-methoxypiperidin-1-yl)-3,7-dimethyl-4-oxo-4H-pyrido[1,2-a]pyrimidin-9-yl)ethyl)amino)benzoic acid] |  |  | > 10000 nM | 53 nM |  |
| CCc1cc([C@@H](C)Nc2ccccc2C(=O)O)c2nc(N3CCC(F)(F)CC3)c(C#N)c(=O)n2c1 [Example 10-46, (R)-2-((1-(3-cyano-2-(4,4-difluoropiperidin-1-yl)-7-ethyl-4-oxo-4H-pyrido[1,2-a]pyrimidin-9-yl)ethyl)amino)benzoic acid] |  |  | > 10000 nM | 65 nM |  |
| C[C@@H](Nc1ccccc1C(=O)O)c1cc(C2CC2)cn2c(=O)c(C#N)c(N3CCC(F)(F)CC3)nc12 [Example 10-83, (R)-2-((1-(3-cyano-7-cyclopropyl-2-(4,4-difluoropiperidin-1-yl)-4-oxo-4H-pyrido[1,2-a]pyrimidin-9-yl)ethyl)amino)benzoic acid] |  |  | > 10000 nM | 78.7 nM |  |
| Cc1cc([C@@H](C)Nc2ccccc2C(=O)O)c2nc(N3CCC(n4ccc(C(F)(F)F)n4)CC3)c(C)c(=O)n2c1 [Example 10-104, (R)-2-((1-(3,7-dimethyl-4-oxo-2-(4-(3-(trifluoromethyl)-1H-pyrazol-1-yl)piperidin-1-yl)-4H-pyrido[1,2-a]pyrimidin-9-yl)ethyl)amino)benzoic acid] |  |  | > 10000 nM | 87.8 nM |  |
| Cc1cc([C@@H](C)Nc2ccc(F)nc2C(=O)O)c2nc(N3CCC(F)(F)CC3)c(C)c(=O)n2c1 [Example 10-105, (R)-3-((1-(2-(4,4-difluoropiperidin-1-yl)-3,7-dimethyl-4-oxo-4H-pyrido[1,2-a]pyrimidin-9-yl)ethyl)amino)-6-fluoropicolinic acid] |  |  | > 10000 nM |  | 89.4 nM |
| Cc1cc([C@@H](C)Nc2cccnc2C(=O)O)c2nc(N3CCC(F)(F)CC3)c(C#N)c(=O)n2c1 [Example 10-121, (R)-3-((1-(3-cyano-2-(4,4-difluoropiperidin-1-yl)-7-methyl-4-oxo-4H-pyrido[1,2-a]pyrimidin-9-yl)ethyl)amino)picolinic acid] |  |  | > 10000 nM | 103 nM |  |
| Cc1cc([C@@H](C)Nc2ccccc2C(=O)O)c2nc(N3Cc4ccc(C(F)F)cc4C3)c(C)c(=O)n2c1 [Example 10-128, (R)-2-((1-(2-(5-(difluoromethyl)isoindolin-2-yl)-3,7-dimethyl-4-oxo-4H-pyrido[1,2-a]pyrimidin-9-yl)ethyl)amino)benzoic acid] |  |  | > 10000 nM | 43.2 nM |  |
| CNS(=O)(=O)c1ccc(N2CCN(c3nc4c([C@@H](C)Nc5ccccc5C(=O)O)cc(C)cn4c(=O)c3C)CC2)cc1 [Example 10-129, (R)-2-((1-(3,7-dimethyl-2-(4-(4-(N-methylsulfamoyl)phenyl)piperazin-1-yl)-4-oxo-4H-pyrido[1,2-a]pyrimidin-9-yl)ethyl)amino)benzoic acid] |  |  | > 10000 nM | 46.7 nM |  |
| Cc1cc([C@@H](C)Nc2ccccc2C(=O)O)c2nc(N3CCC4(CCOC4)CC3)c(C)c(=O)n2c1 [Example 10-130, (R)-2-((1-(3,7-dimethyl-4-oxo-2-(2-oxa-8-azaspiro[4.5]decan-8-yl)-4H-pyrido[1,2-a]pyrimidin-9-yl)ethyl)amino)benzoic acid] |  |  | > 10000 nM |  | 46.9 nM |
| Cc1cc([C@@H](C)Nc2ccccc2C(=O)O)c2nc(N3CCN(Cc4cccnc4)CC3C)c(C)c(=O)n2c1 (stereo partly drawn) [Example 10-132, 2-(((1R)-1-(3,7-dimethyl-2-(2-methyl-4-(pyridin-3-ylmethyl)piperazin-1-yl)-4-oxo-4H-pyrido[1,2-a]pyrimidin-9-yl)ethyl)amino)benzoic acid] |  |  | > 10000 nM | 51 nM |  |
| Cc1cc([C@@H](C)Nc2ccccc2C(=O)O)c2nc(N3CC4C5CCC(CC5)C4C3)c(C)c(=O)n2c1 (stereo partly drawn) [Example 10-133, 2-(((1R)-1-(3,7-dimethyl-2-(octahydro-2H-4,7-ethanoisoindol-2-yl)-4-oxo-4H-pyrido[1,2-a]pyrimidin-9-yl)ethyl)amino)benzoic acid] |  |  | > 10000 nM | 55.4 nM |  |
| Cc1cc(C(C)Nc2cccc(F)c2C(=O)O)c2nc(N3Cc4ccccc4C3)c(C)c(=O)n2c1 (centres unmarked) [Example 11-368, 2-fluoro-6-((1-(2-(isoindolin-2-yl)-3,7-dimethyl-4-oxo-4H-pyrido[1,2-a]pyrimidin-9-yl)ethyl)amino)benzoic acid] |  |  |  | 856 nM |  |
| Cc1cc(C(C)Nc2ccccc2C(=O)O)c2nc(N3CCN(C)C(=O)C3)cc(=O)n2c1 (centres unmarked) [Example 11-384, 2-((1-(7-methyl-2-(4-methyl-3-oxopiperazin-1-yl)-4-oxo-4H-pyrido[1,2-a]pyrimidin-9-yl)ethyl)amino)benzoic acid] |  |  |  | > 10000 nM |  |
